Assay results from patent publication US5801165A, “Antiinflammatory, immunosuppressive and antialleric 16, 17-alkylidioxy-steroids” (Rhone-Poulenc Rorer Limited, priority 1992, dated 1998).

Experiments:
[1] = system: tyrosine aminotransferase activity, rat liver H4IIE cells; assay: Induction of tyrosine aminotransferase activity in rat liver H4IIE cells; type: cell-based; details: overnight incubation, maximum of dexamethasone as reference, method defines ED50 = 50% of the maximum achievable increase, read-out: IC50 (induction of tyrosine aminotransferase activity)
Description: INDUCTION OF TYROSINE AMINOTRANSFERASE ACTIVITY
Rat liver H4IIE cells are cultured for 4 days until the cells are confluent. The medium is replaced by fresh medium, containing steroid under test (0-100 nM) which is added to triplicate wells. After overnight incubation as above, the medium is removed and the cells are lysed and the extract is equilibrated at 37° C. with α-ketoglutarate and pyridoxal phosphate in phosphate buffer, pH 7.3, in a final volume of 1 ml. Tyrosine aminotransferase activity is initiated by adding tyrosine and incubating at 37° C. for 10 minutes. The reaction is stopped by adding aqueous sodium hydroxide solution (10M). The ultra-violet absorbance of the para-hydroxybenzaldehyde is measured by a plate reader at 340 nm. The maximal absorbance change achieved with the standard (dexamethasone) is used as a reference. The absorbance change for each concentration of steroid under test is calculated as a fraction of the maximal absorption achievable and plotted against steroid concentration. The ED50 is determined as the concentration causing an increase in tyrosine aminotransferase activity of 50% of the maximum achievable. IC50 =0.3 nM

[2] = system: antigen-induced mouse ear oedema; assay: Inhibition of antigen-induced mouse ear oedema in-vivo (ovalbumin sensitised mice); details: topical, 18 hours before intradermal antigen challenge; killed 1 hour later
Description: INHIBITION OF MOUSE EAR OEDEMA IN-VIVO (ii) Ovalbumin sensitised mice are challenged with antigen injected into the right ear intradermally under 4% halothane anaesthesia (4% in oxygen, 4 litres/minute for 2 minutes) 18 hours after topical treatment with the steroids [as above in (i)]. The mice are killed 1 hour later, and a 5 mm disc is punched out of each ear, and weighed. The dose reducing the oedema by 50% (ED50) is determined as above.

[3] = system: PMA-induced mouse ear oedema; assay: Inhibition of PMA-induced mouse ear oedema in-vivo; parameters: species or system female mice (CD1 strain); details: epicutaneous, 18 hours before PMA 1.25 μg/ear; killed 4 hours later
Description: INHIBITION OF MOUSE EAR OEDEMA IN-VIVO (i) Steroids are dissolved in acetone and administered epicutaneously to the ventral and dorsal surfaces of the right ear pinna of female mice (CD1 strain, 5 in each group, each weighing about 20 g). 18 Hours later, phorbol myristate acetate (PMA, 1.25 μg/ear) in acetone is applied epicutaneously to the right ear. The mice are killed 4 hours later, and a 5 mm disc is punched out of each ear and weighed. The dose reducing PMA-induced oedema by 50% (ED50) is determined from linear regression.

[4] = system: TNF-α release from human peripheral blood monocytes; assay: Inhibition of tumour necrosis factor (TNF-α) release from human peripheral blood monocytes (lipopolysaccharide challenge); type: cell-based; details: Monocyte, 18 hours incubation with steroid, then 10 ng/ml lipopolysaccharide for 4 hours, read-out: IC50 (steroid concentration reducing TNF-α release by 50%)
Description: INHIBITION OF TUMOUR NECROSIS FACTOR (TNF-α) RELEASE FROM HUMAN PERIPHERAL BLOOD MONOCYTES Monocytes are obtained from blood samples taken from normal human donors. The leukocyte population is washed, applied to a discontinuous metrizamide gradient, and fractionated by centrifugation. The monocyte-enriched interface is aspirated, the cells washed and total and differential counts performed to determine the number of monocytes. Cells are allowed to adhere to 96-well plates for 1 to 2 hours, and thereafter incubated (8×10^5 monocytes/well) with the steroid for 18 hours (37° C. in 5% CO2). Cells are challenged with 10 ng/ml lipopolysaccharide for 4 hours and TNF-αis assayed by use of an enzyme-linked immunosorbent assay. TNF-α quantification is performed with goat anti-human TNF-α being used as the coating antibody, rabbit anti-human TNF-α as the second antibody, and goat anti-rabbit IgG horseradish peroxidase as the detection antibody. The IC50 is the steroid concentration reducing TNF-α release by 50%.

[5] = system: Sephadex-induced lung oedema in rats; assay: animal or person; type: in vivo, male rats (Sprague-Dawley strain)
Description: INHIBITION OF RAT LUNG OEDEMA IN-VIVO:
Test compounds are suspended in 1% carboxymethyl-cellulose/0.2% Tween 80 at double the required strength and sonicated to form a suspension. This is administered intra-tracheally (i.t.) to male rats (Sprague-Dawley strain, 6 in each group, each weighing about 350 g) at 0 hours and 24 hours, with the first dose being co-administered with saline and the second with Sephadex G200 [cross-linked dextran] (10 mg/ml) giving a final Sephadex concentration of 5 mg/ml. I.t. dosing is carried out under halothane anaesthesia (4% in oxygen, at 4 litres/minute for 3 minutes). At 48 hours, the rats are killed, final body weight is recorded, and the lungs and thymus are removed and weighed. The doses reducing the Sephadex-induced oedema and the thymus weight by 30% (ED30) are calculated. Airway selectivity is defined as the ratio of thymus involution (ED30) and inhibition of lung oedema (ED30).

## CCC[C@@H]1O[C@@H]2C[C@H]3[C@@H]4C[C@H](F)C5=CC(=O)CC[C@]5(C)[C@@]4(F)[C@@H](O)C[C@]3(C)[C@]2(SC)O1
[1]
  ED50 (induction of tyrosine aminotransferase activity): 300 pM
[2]
  Inhibition of antigen-induced mouse ear oedema: ED50: 0.026 μg/ear
[3]
  Inhibition of PMA-induced mouse ear oedema: ED5O: 0.0082 μg/ear
[4]
  IC50: 250 pM
[5]; Rattus norvegicus, inhaled or nasal, i.t. at 0 and 24 hours, rats killed at 48 hours, dose reducing Sephadex-induced oedema by 30%
  ED30: 3 µg/kg
[5]; rat, in vivo, 2880 min
  Thymus involution: ED30: 2200 µg/kg
[5]; ratio ED30 thymus involution / ED30 lung oedema, i.t., rat
  Airway selectivity (ratio of thymus involution ED30 and inhibition of lung oedema ED30): 733
